Test results taken from patent US11186534B2, “Derivatives of sulindac can protect normal cells against oxidative damage” (University of South Alabama, priority 2017, dated 2021).

Legend:
Format in all cases: biochemical
ovine COX-1 = biological target: T1, ovine COX-1 (Ovis aries, UniProt P05979); assay: COX Fluorescent Inhibitor Screening assay, COX-1; settings: FIG. 4A
T1 construct: purchased Cayman Chemical 700100
T1 sequence (P05979 25-600): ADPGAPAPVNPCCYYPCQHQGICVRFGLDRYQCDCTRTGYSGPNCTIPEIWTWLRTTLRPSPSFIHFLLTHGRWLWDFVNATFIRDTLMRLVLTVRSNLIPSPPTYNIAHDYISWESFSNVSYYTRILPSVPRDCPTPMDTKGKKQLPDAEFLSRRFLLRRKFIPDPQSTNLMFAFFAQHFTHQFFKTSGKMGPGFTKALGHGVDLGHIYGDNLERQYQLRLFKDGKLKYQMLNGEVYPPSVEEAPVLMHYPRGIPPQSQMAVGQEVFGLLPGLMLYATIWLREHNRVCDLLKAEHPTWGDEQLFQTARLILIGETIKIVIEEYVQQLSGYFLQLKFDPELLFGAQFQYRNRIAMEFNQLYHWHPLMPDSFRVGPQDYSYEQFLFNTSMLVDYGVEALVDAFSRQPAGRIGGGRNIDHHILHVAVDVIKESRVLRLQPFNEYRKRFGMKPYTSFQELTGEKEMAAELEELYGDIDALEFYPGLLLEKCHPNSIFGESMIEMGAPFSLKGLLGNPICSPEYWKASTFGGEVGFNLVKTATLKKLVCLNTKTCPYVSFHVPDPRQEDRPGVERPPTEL
Protocol: (§1) Compounds were assayed for cyclooxygenase (COX) inhibition using the COX Fluorescent Inhibitor Screening Kit from Cayman Chemical (Item #: 700100). Briefly, COX enzyme (ovine COX-1 or human recombinant COX-2) diluted in 1× reaction buffer is incubated with the compound or DMSO control for 20 min at 25° C. in a half-area 96-well black microplate. Background wells are also included that contained no enzyme. Added to each well were heme B, to ensure enzyme activity, and 10-acetyl-3,7-dihydroxyphenoxazine (ADHP) assay reagent. After the 20 min incubation, arachidonic acid (AA) substrate was added to all wells. As shown by the schematic diagram below, active COX enzyme converts AA to hydroperoxy endoperoxide (PGG2). Catalyzed by the secondary peroxidase activity of COX, ADHP can react with PGG2 to form a highly fluorescent compound, resorufin. Fluorescence was measured with a […] excitation wavelength and a 585-595 nm emission wavelength. Decreased fluorescence relative to the DMSO control indicates COX inhibition. See, also, Piazza G A, Keeton A B, Tinsley H N, Gary B D, Whitt J D, Mathew B, Thaiparambil J, Coward L, Gorman, G, Li Y, Sani B, Hobrath J V, Maxuitenko Y Y and Reynolds R C. […] Cancer Prevention Research 2009; 2: 572-580.

[1] = system: PDE isozymes 1-11 (except PDE6); assay: IMAP fluorescence polarization PDE assay, panel of PDE isozymes; settings: 25 μM; FIG. 5C
Protocol: (§2) PDE activity was measured using the IMAP fluorescence polarization PDE assay (Molecular Devices) in which the binding of hydrolyzed fluorescent cyclic nucleotide substrate to the IMAP reagent increases fluorescence polarization. Each well of a 96-well nonbinding plate contained 0.25 mg/mL of recombinant enzyme preparations. Enzymes were incubated with COMPOUND 9 or vehicle (DMSO) for 30 min at 30° C. before the addition of a substrate mixture containing 25 nmol/L of fluorescein-cGMP. The DMSO final concentration for each experiment was 2%. After 90 min of incubation at 30° C., the reaction was terminated by the addition of binding reagent. The maximum Fluorescence polarization was measured using a Synergy4 (BioTek) plate reader.

human recombinant COX-2 = biological target: T2, human recombinant COX-2 (Homo sapiens, UniProt P35354); assay: COX Fluorescent Inhibitor Screening assay, COX-2; settings: FIG. 4B
T2 construct: purchased Cayman Chemical 700100
T2 sequence (P35354 18-604): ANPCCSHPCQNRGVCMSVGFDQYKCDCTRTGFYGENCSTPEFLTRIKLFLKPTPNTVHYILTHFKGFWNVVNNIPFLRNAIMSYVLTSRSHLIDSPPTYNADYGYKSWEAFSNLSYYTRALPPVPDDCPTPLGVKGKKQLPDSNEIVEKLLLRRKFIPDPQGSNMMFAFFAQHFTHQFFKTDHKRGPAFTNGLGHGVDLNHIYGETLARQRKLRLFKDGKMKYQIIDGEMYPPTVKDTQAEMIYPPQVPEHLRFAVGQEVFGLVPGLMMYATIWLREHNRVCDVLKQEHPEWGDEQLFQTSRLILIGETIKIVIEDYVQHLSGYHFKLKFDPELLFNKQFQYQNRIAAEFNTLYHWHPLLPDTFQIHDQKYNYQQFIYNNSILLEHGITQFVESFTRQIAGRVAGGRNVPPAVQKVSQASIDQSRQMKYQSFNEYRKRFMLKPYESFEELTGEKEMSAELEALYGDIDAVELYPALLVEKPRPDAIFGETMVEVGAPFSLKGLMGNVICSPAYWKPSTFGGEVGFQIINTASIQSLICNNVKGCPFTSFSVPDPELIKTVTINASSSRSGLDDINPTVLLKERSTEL
Protocol: as §1

PDE5 = PDE5 (Homo sapiens, UniProt O76074); assay: IMAP fluorescence polarization PDE assay, PDE5; settings: FIG. 5A
Protocol: as §2

COc1cc2c(cc1OC)/C(=C\c1cc(OC)c(OC)c(OC)c1)C(C)=C2CC(=O)O [Compound 9, (Z)-2-(5,6-dimethoxy-2-methyl-1-(3,4,5-trimethoxybenzylidene)-1H-inden-3-yl)acetic acid]
COX-1 inhibition: fold less potent than sulindac sulfide (SS) (ovine COX-1): ≥ 20 ×
Inhibition of other cGMP PDE isozymes, including PDE 1, 2, 3 and 11 [1]: lower inhibitory effects
PDE isozyme selectivity [1]: most active against PDE5 and 10
COX-2 inhibition: fold less potent than celecoxib (human recombinant COX-2): approximately 1000 ×
IC50 (PDE5): ~32 µM
